Results reported in patent US20090012103A1, “SUBSTITUTED HETEROCYCLIC COMPOUNDS” (priority 2007, published 2009).

How the values were obtained:
[1] = molecular target: hERG potassium channel (Homo sapiens, UniProt Q12809); assay: hERG screening assay (PatchXpress patch clamp, CHO cell line)
[2] = molecular target: T1, wild-type human cardiac sodium channel, hNav1.5 (Homo sapiens, UniProt Q14524); assay: Late INa screening assay (late sodium current, PatchXpress whole cell patch clamp); type: cell-based; conditions: compound at 10 μM; read-out: Late INa % blk
[3] = molecular target: T1, wild-type human cardiac sodium channel, hNav1.5; assay: Peak INa screening assay (tonic block TB and use-dependent block UDB of peak sodium current); type: cell-based; conditions: compound at 10 μM
Description: The late sodium current (Late INa) and peak sodium current (Peak INa) assays are performed on an automated electrophysiology platform, PatchXpress 7000A (MDS Analytical Technologies, Sunnyvale, Calif.), which uses the whole cell patch clamp technique to measure currents through the cell membrane of up to 16 cells at a time. The assay uses an HEK293 (human embryonic kidney) cell line heterologously expressing the wild-type human cardiac sodium channel, hNav1.5, purchased from Millipore (Billerica, Mass.). No beta subunits were coexpressed with the Na channel alpha subunit. […] Experiments are carried out at 24-27° C.
For both the Late INa and Peak INa assays, series resistance compensation is set to 50% and whole-cell compensation is performed automatically. […] Currents through open sodium channels are automatically recorded and stored in the DataXpress2 database (MDS Analytical Technologies, Sunnyvale, Calif.). Analysis is performed using DataXpress2 analysis software and data are compiled in Excel.
Compound stocks are routinely made in glass vials to 10 mM in dimethyl sulfoxide (DMSO). In some cases, when compounds are not soluble in DMSO, they are made in 100% ethanol. Stocks are sonicated as necessary. The extracellular solution for screening Late INa is composed of: 140 mM NaCl, 4 mM KCl, 1.8 mM CaCl2, 0.75 mM MgCl2, and 5 mM HEPES with pH adjusted to 7.4 using NaOH. The extracellular solution for screening Peak INa is composed of: 20 mM NaCl, 120 mM N-methyl-D glucamine, 4 mM KCl, 1.8 mM CaCl2, 0.75 mM MgCl2, and 5 mM HEPES with pH adjusted to 7.4 using HCl. The intracellular solution used to perfuse the inside of the cells for both the Late INa and Peak INa assays contains: 120 mM CsF, 20 mM CsCl, 5 mM EGTA, 5 mM HEPES and pH adjusted to 7.4 with CsOH. Compounds are diluted in extracellular solution to 10 μM in glass vials and then transferred to glass well plates before robotic addition to the cells. The 0 Na extracellular solution used at the end of each experiment for the Late INa and Peak INa assays to measure baseline current contains: 140 mM N-methyl-D-glucamine; 4 mM KCl; 1.8 mM CaCl2; 0.75 mM MgCl2; 5 mM HEPES and pH was adjusted to 7.4 with HCl.
Compounds were also evaluated for their effect in several other assays, including their effect on Peak INa. In some cases, the effect on Peak INa was measured using data from the Late INa assay. […] Since the peak INa can be very large, introducing artifacts in the recording, the concentration of Na^+ in the bath is reduced to 20 mM and a nonpermeant cation is added to compensate for the Na^+ that was omitted from the standard extracellular solution (see above). The peak INa assay uses a holding potential of −100 mV and a 20 ms test pulse to 0 mV to activate the channel. As in the Late INa assay, stepping the voltage to 0 mV causes a rapid increase in negative Na current through hNav1.5 that inactivates within a few ms. No late INa activator is added for the peak assay.
For the separate peak INa assay, both tonic (TB) block and use-dependent (UDB) block of peak inward sodium current by 10 μM compound are determined. TB is block of the channel in the resting state, before the channel opens. TB is simulated in this assay by stimulating the channel to open at a low frequency (0.1 Hz). This is done in order to measure the control current amplitude and monitor current rundown, enabling correction for rundown in the calculation of percent block for TB.

[4] = tonic block, read-out: Tonic Peak INa % blk
[5] = use-dependent block, read-out: UDB Peak INa % blk

hERG potassium channel, sequence (Q12809 whole entry): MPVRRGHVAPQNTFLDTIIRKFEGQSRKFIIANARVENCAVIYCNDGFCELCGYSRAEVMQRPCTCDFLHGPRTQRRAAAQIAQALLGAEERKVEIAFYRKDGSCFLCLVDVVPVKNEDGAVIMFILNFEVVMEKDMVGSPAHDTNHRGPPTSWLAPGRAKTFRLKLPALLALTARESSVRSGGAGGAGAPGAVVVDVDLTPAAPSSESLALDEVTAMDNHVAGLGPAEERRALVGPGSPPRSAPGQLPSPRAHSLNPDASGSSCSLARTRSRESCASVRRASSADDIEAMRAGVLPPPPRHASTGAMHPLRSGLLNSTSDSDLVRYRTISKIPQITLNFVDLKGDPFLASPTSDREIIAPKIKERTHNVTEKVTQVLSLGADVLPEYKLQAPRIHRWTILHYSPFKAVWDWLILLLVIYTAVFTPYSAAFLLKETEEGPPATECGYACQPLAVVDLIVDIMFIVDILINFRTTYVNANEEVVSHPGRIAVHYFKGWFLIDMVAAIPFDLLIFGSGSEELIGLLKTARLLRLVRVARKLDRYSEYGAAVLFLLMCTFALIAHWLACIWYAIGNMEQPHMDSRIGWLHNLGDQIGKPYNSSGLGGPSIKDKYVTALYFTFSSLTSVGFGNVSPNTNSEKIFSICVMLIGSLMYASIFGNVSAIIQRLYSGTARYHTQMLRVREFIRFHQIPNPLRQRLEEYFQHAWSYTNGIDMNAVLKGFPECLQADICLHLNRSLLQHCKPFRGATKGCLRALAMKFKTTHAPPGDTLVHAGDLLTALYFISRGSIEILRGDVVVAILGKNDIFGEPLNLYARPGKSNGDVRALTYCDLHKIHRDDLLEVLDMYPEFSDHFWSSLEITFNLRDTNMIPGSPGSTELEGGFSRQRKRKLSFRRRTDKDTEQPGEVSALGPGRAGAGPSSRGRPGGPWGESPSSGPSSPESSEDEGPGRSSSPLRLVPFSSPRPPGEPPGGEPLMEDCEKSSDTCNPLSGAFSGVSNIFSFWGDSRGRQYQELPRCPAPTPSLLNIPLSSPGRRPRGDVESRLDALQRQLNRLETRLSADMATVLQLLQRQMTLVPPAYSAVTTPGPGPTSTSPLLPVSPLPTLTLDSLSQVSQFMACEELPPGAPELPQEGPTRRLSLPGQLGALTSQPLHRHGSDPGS
T1 sequence (Q14524 whole entry): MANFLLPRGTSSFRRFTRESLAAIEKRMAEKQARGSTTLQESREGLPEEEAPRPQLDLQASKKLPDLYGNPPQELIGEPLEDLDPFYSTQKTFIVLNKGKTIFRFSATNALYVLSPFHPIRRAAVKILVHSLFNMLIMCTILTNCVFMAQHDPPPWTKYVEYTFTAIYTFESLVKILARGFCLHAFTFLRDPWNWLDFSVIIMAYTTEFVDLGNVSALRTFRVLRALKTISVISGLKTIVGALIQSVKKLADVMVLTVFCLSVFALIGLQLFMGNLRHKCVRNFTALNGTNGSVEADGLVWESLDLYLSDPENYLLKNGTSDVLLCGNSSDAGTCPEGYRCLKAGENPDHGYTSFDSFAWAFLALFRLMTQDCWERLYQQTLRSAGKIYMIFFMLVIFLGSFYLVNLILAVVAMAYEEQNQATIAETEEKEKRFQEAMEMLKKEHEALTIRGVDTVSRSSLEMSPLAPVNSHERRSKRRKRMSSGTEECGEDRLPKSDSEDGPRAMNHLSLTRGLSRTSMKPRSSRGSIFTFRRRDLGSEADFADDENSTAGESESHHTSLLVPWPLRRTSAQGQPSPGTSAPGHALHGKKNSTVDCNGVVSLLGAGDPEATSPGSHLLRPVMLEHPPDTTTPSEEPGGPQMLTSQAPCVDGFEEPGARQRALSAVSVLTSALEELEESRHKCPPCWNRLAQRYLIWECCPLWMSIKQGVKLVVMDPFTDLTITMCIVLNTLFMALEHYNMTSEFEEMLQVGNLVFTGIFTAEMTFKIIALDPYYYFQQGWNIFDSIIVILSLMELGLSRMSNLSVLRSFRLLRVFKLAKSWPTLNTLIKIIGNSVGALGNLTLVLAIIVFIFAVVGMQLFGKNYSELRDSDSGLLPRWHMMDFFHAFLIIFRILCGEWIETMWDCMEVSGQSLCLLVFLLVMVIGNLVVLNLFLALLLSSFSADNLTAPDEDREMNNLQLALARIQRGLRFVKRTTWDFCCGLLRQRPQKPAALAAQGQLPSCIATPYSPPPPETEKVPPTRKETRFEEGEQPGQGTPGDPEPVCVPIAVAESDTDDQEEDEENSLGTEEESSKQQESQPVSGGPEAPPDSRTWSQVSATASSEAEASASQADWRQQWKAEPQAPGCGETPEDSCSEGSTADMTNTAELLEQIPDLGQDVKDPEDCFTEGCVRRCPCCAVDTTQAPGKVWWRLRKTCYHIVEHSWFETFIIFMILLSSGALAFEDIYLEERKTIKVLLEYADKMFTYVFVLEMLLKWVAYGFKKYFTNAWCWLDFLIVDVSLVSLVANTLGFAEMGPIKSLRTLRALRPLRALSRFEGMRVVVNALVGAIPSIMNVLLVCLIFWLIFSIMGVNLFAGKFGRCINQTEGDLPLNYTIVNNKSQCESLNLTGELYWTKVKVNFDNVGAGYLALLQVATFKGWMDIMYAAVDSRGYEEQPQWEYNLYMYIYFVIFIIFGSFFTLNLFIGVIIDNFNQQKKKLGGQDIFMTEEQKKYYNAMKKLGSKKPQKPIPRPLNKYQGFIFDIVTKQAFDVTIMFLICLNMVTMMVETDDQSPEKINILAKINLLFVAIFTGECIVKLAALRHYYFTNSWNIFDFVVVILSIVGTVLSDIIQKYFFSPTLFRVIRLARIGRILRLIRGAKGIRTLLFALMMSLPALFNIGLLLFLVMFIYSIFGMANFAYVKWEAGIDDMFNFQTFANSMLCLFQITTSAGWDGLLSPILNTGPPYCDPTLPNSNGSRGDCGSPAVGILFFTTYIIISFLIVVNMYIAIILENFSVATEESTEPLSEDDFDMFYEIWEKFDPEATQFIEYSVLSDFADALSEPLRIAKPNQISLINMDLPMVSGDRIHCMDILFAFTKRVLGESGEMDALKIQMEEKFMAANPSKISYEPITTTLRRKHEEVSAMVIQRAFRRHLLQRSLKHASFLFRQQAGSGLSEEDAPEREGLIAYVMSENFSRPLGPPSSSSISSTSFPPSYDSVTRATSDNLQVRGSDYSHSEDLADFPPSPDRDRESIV

Structure (SMILES)	hERG Patch Clamp hERG % blk ([1]; 1 μM) [%]	hERG Patch Clamp hERG % blk ([1]; 10 μM) [%]	inhibition at 10 µM [2] [%]	inhibition at 10 µM [3, 4] [%]	inhibition at 10 µM [3, 5] [%]
CC1=C(C(=O)OC(c2ccccc2)C2CC2)C(c2cccc3ccccc23)n2nnnc2N1 (stereo not drawn) [PT-002, cyclopropyl(phenyl)methyl 5-methyl-7-(naphthalen-1-yl)-4,7-dihydrotetrazolo[1,5-a]pyrimidine-6-carboxylate]	11.5	28.0	53.1	2.4	
CCOC(=O)C1=C(C)Nc2nnnn2C1c1ccc2ccccc2c1 (stereo not drawn) [PT-008, ethyl 5-methyl-7-(naphthalen-2-yl)-4,7-dihydrotetrazolo[1,5-a]pyrimidine-6-carboxylate]	10.0	33.5	57.2	2.1	
CC1=C(C(=O)OCc2ccccc2)C(c2cccc3ccccc23)n2nnnc2N1 (stereo not drawn) [PT-027, benzyl 5-methyl-7-(naphthalen-1-yl)-4,7-dihydrotetrazolo[1,5-a]pyrimidine-6-carboxylate]	14.0	64.5	74.9	29.7	6.8
CC1=C(C(=O)OCc2ccccc2)C(c2ccc(N(C)C)c3ccccc23)n2nnnc2N1 (stereo not drawn) [PT-032, benzyl 7-(4-(dimethylamino)naphthalen-1-yl)-5-methyl-4,7-dihydrotetrazolo[1,5-a]pyrimidine-6-carboxylate]	19.0	50.5	63.6	11.5	
CC1=C(C(=O)OCc2ccccc2)C(c2cccs2)n2nnnc2N1 (stereo not drawn) [PT-040, benzyl 5-methyl-7-(thiophen-2-yl)-4,7-dihydrotetrazolo[1,5-a]pyrimidine-6-carboxylate]	14.5	24.5	70.8	9.9	
CC1=C(C(=O)OCc2ccccc2)C(c2cc3ccccc3o2)n2nnnc2N1 (stereo not drawn) [PT-045, benzyl 7-(benzofuran-2-yl)-5-methyl-4,7-dihydrotetrazolo[1,5-a]pyrimidine-6-carboxylate]	10.0	70.0	92	23.8	
CC1=C(C(=O)OC2CCc3ccccc32)C(c2cccc3ccccc23)n2nnnc2N1 (stereo not drawn) [PT-062, 2,3-dihydro-1H-inden-1-yl 5-methyl-7-(naphthalen-1-yl)-4,7-dihydrotetrazolo[1,5-a]pyrimidine-6-carboxylate]	14.0	51.0	60.2	7.9	
CC1=C(C(=O)OC(C)Cc2ccccc2)C(c2cccc3ccccc23)n2nnnc2N1 (stereo not drawn) [PT-064, 1-phenylpropan-2-yl 5-methyl-7-(naphthalen-1-yl)-4,7-dihydrotetrazolo[1,5-a]pyrimidine-6-carboxylate]	20.5	37.5	79.5	7.2	
N#CC1=C(N)OC2=C(C(=O)CCC2)C1c1ccc(Br)cc1 (stereo not drawn) [PT-096, 2-amino-4-(4-bromophenyl)-5-oxo-5,6,7,8-tetrahydro-4H-chromene-3-carbonitrile]	15.0	48.0	5.5	-0.4	
N#CC1=C(N)OC2=C(C(=O)CCC2)C1c1ccsc1 (stereo not drawn) [PT-100, 2-amino-5-oxo-4-(thiophen-3-yl)-5,6,7,8-tetrahydro-4H-chromene-3-carbonitrile]	10.0	16.5	-12.1	4	
CCOC(=O)C1=C(C)NC(C)=C(C(=O)OCC)C1c1ccc2c(c1)OCCO2 [PT-109, diethyl 4-(2,3-dihydrobenzo[b][1,4]dioxin-6-yl)-2,6-dimethyl-1,4-dihydropyridine-3,5-dicarboxylate]	16.0	34.2		18.1	
CC1=C(C(=O)OCC2CC2)C(c2c(Br)sc3ccccc23)n2nnnc2N1 (stereo not drawn) [PT-426, cyclopropylmethyl 7-(2-bromobenzo[b]thiophen-3-yl)-5-methyl-4,7-dihydrotetrazolo[1,5-a]pyrimidine-6-carboxylate]			81	60.1	50.7
CCOC(=O)C1=C(C)NC(C)=C(C(=O)OCC)C1c1ccccc1-c1ccc(NS(C)(=O)=O)cc1 [PT-428, diethyl 2,6-dimethyl-4-(4′-(methylsulfonamido)biphenyl-2-yl)-1,4-dihydropyridine-3,5-dicarboxylate]			45.1	5.3	1
CCOC(=O)C1=C(C)Nc2nnnn2C1c1c(Br)sc2ccccc12 (stereo not drawn) [PT-489, ethyl 7-(2-bromobenzo[b]thiophen-3-yl)-5-methyl-4,7-dihydrotetrazolo[1,5-a]pyrimidine-6-carboxylate]			80.7	46.2	29.2
CCOC(=O)C1=C(C)Nc2nnnn2C1c1ccccc1I (stereo not drawn) [PT-492, ethyl 7-(2-iodophenyl)-5-methyl-4,7-dihydrotetrazolo[1,5-a]pyrimidine-6-carboxylate]			39.3	0.3	
CCOC(=O)C1=C(C)Nc2nnnn2C1c1cccc(Oc2cccc(C(=O)OCC)c2)c1 (stereo not drawn) [PT-494, ethyl 7-(3-(3-(ethoxycarbonyl)phenoxy)phenyl)-5-methyl-4,7-dihydrotetrazolo[1,5-a]pyrimidine-6-carboxylate]			71.8	6.7	2
CCOC(=O)C1=C(C)Nc2nnnn2C1c1cccc(OCc2cccc(C(=O)OC)c2)c1 (stereo not drawn) [PT-495, ethyl 7-(3-(3-(methoxycarbonyl)benzyloxy)phenyl)-5-methyl-4,7-dihydrotetrazolo[1,5-a]pyrimidine-6-carboxylate]			54.2	20.7	11.6
CCOC(=O)C1=C(C)Nc2nnnn2C1c1sccc1-c1cccc(F)c1 (stereo not drawn) [PT-496, ethyl 7-(3-(3-fluorophenyl)thiophen-2-yl)-5-methyl-4,7-dihydrotetrazolo[1,5-a]pyrimidine-6-carboxylate]			84.2	36.8	9.1
CCOC(=O)C1=C(C)Nc2nnnn2C1c1cccc(OCc2ccc(C(=O)OCC)cc2)c1 (stereo not drawn) [PT-497, ethyl 7-(3-(4-(ethoxycarbonyl)benzyloxy)phenyl)-5-methyl-4,7-dihydrotetrazolo[1,5-a]pyrimidine-6-carboxylate]			59	22.2	15.4
CC1=C(C(=O)OC(C)C)C(c2c(Br)sc3ccccc23)n2nnnc2N1 (stereo not drawn) [PT-506, isopropyl 7-(2-bromobenzo[b]thiophen-3-yl)-5-methyl-4,7-dihydrotetrazolo[1,5-a]pyrimidine-6-carboxylate]			81.4	48.8	23
COC(=O)C1=C(C)Nc2nnnn2C1c1c(Br)sc2ccccc12 (stereo not drawn) [PT-518, methyl 7-(2-bromobenzo[b]thiophen-3-yl)-5-methyl-4,7-dihydrotetrazolo[1,5-a]pyrimidine-6-carboxylate]			71.2	24	
